The record followed here is patent US20130116203A1, “ISOTHIOCYNATES AND GLUCOSINOLATE COMPOUNDS AND ANTI-TUMOR COMPOSITIONS CONTAINING SAME” (priority 2011, published 2013).

Common to all, as to type: cell-based
Assay [1] relates to NCI/ADR RES (human breast carcinoma) cells. In words: Cell Titer-Glo cytotoxicity assay, NCI/ADR-RES. The text has this: (§1) Five serial 1:2 dilutions were made with anhydrous DMSO at 100× the final concentration used in the assay.
On the technique in general: ATP-based viability assays read luminescence as a measure of living cells.

Assay [2] relates to eight human cancer cell lines. The assay is described as follows: Average cytotoxicity across the human cancer cell line panel.
Excerpt: as §1

Assay [3] has as its system NCI-H460 (human breast carcinoma) cells. In words: Cell Titer-Glo cytotoxicity assay, NCI-H460. The settings on record: inferred from racemate 13 vs 2.
Excerpt: as §1

Assay [4] deals with MCF7 (human breast carcinoma) cells. In words: Cell Titer-Glo cytotoxicity assay, MCF7. The settings on record: inferred from racemate 13 vs 2.
Excerpt: as §1

Consider `S=C=NCc1cccnc1` [Compound 22, 3-(isothiocyanatomethyl)pyridine], for which, in assay [1] (NCI/ADR RES cells), the “fold increase in potency over 23” value is on record as at most 10 fold. Also, in assay [2] (potency in NCI/ADR RES and selectivity over NmuMG taken together), the “increase in effectiveness relative to L-sulforaphane” value is reported as around 30 fold.
As to `S=C=NCc1ccccc1` [Compound 23, 1-(isothiocyanatomethyl)benzene], in assay [2] (average IC50 compared), the “fold increase in potency over fully-saturated 18” value is above 3 fold.
As to `C[S@+]([O-])CCCCN=C=S` [D-sulforaphane], the “% bioactive” value came to 9% in assay [1] (NCI/ADR RES, inferred from racemate 13 vs 2); 14% in assay [3]; 0% in assay [4].
